Each sequence was assayed on Staphylococcus carnosus ATCC51365 (assay: Yeast screening assay: radial diffusion assay of yeast supernatants). Settings: yeast supernatant, clearing zone in radial diffusion assay.
Type: cell-based
Design: key: An activity of 3 is better than Plectasin; An activity of 2 corresponds to the activity of Plectasin; 1 is worse than Plectasin
Method: A range of antimicrobial polypeptides, which are variants of SEQ ID NO: 1 (Plectasin), were tested for antimicrobial activity by expressing them in S. cerevisae and screening the supernatant of the yeast transformants for antimicrobial activity against Staphylococcus carnosus ATCC51365.
Radial Diffusion Assay was carried out as described in Methods in Molecular Biology, Vol. 78, Antibacterial peptide protocol, William M. Shafer, Human Press.
200-300 yeast transformant colonies were plated on 14 cm round plates containing 25 mL SC growth medium supplemented with 1.5% galactose, 0.5% glucose and 1.5% agarose. Plates were incubated for three hours at room temperature, overlaid with 25 mL of the same growth medium and allowed to grow for three days at 30° C. Then the plates were overlaid with 25 mL of LB growth medium containing 1.5% agarose and 10^5 cells of the indicator strain Staphylococcus carnosus and incubated at 30° C. overnight to allow growth of the bacterial cells. Next day, the plates were stained with 1.5 mM MTT to facilitate visualization of the clearing zones.
Yeast colonies creating clearing zones were transferred to microtiter plates containing 200 micro-L of SC growth medium supplemented with 2% glucose and ampicillin (100 mg/L). Such plates designated “master plates” were incubated for 2 days at 30° C. with shaking at 450 rpm to allow yeast growth.
10 micro-L SC growth medium from each well of the master plates were transferred to new microtiter plates containing 200 micro-L SC growth medium with 1.5% galactose and 0.5% glucose. These plates were called daughter plates and were incubated for 3 days at 30° C. under 450 rpm shaking to allow yeast growth and peptide synthesis.
Finally a Radial Diffusion Assay (RDA) was performed following the protocol described in Methods in Molecular Biology to analyse and quantify the antimicrobial activity of the yeast supernatants against S. carnosus.
Briefly, 30 mL of minimal underlay medium containing 1% agarose and 5×10^5 cfu/mL of S. carnosus was poured in an omnitray plate (Nunc, 242811). A Nunc TSP plate (#445497) was inserted immediately on the plate to allow a 96 well pattern formation. Once the media had solidified, the TSP plate was removed and 10 micro-L of yeast supernatant samples were applied on the holes. Plates were incubated 3 hours at 37° C. and overlaid with 15 mL of LB agar growth medium. Finally, plates were incubated overnight at 37° C. and coloured with 1.5 mM MTT to visualize the clearing zones.
Inspection and measurements of the clearing zones was performed on the plates. The corresponding yeast clones resulting in clearing zones of similar or increased size than the clones encoding for wild type plectasin were picked from the master plates and transferred to agar plates containing SC growth medium with 2% glucose and ampicillin (100 mg/L). Such plates were incubated for further 2 days at 30° C. to allow yeast growth. Subsequently, colony PCR was performed followed by sequence analysis to identify amino acid changes in the plectasin sequence.
An activity of 2 corresponds to the activity of Plectasin. An activity of 3 is better than Plectasin, and 1 is worse than Plectasin.

| Sequence | Activity (antimicrobial activity relative to the activity of plectasin) |
| --- | --- |
| GFGCNGPWDEDDMTCHNHCKSIKGYKGGYCAKGGFVCKCY [Mutation Q14T] | 2 |
| GFGCQGPWDEDDMQCHNHCKSIKGYKGGYCAKGGFVCKCY [Mutation N5Q] | 3 |
| GFGCNGPWDGDDMRCHNHCKSIKGYKGGYCAKGGFVCKCY [E10G + Q14R] | 3 |
| GFGCNGPWDGDDMQCHNHCKSIKGYKGGYCAKGGFVCKCY [Mutation E10G] | 3 |
| GFGCNGPWDEDDMKCHNHCKSIKGYKGGYCAKGGFVCKCY [Mutation Q14K] | 2 |
| GFGCNGPWDEDDMQCHNHCKSIKGYTGGYCAKGGFVCKCY [Mutation K26T] | 2 |
| GFGCNGPWDCDDMQCHNHCKSIKGYKGGYCAKGGFVCKCY [Mutation E10C] | 2 |
| GFGCNGPWDEDDMQCHNLCKSIKGYKGGYCAKGGFVCKCY [Mutation H18L] | 3 |
| GFGCNGPWIEDDMQCHNHCKSIKGYKGGYCAKGGFVCKCY [Mutation D9I] | 2 |
| GFGCNGPWDETDMQCHNHCKSIKGYKGGYCAKGGFVCKCY [Mutation D11T] | 3 |
| GFGCNGPWDEDDMQCHNHCKSIKGYKGGSCAKGGFVCKCY [Mutation Y29S] | 2 |
| GLGCNGPWDEDDMQCHNHCKSIKGYKGGYCAKGGFVCKCY [Mutation F2L] | 2 |
| GFGCNGPWDEDDMQCHNHCKSIKPYKGGYCAKGGFVCKCY [Mutation G24P] | 2 |
| GFGCNGPWDEDDMQCHNHCKSIKTYKGGYCAKGGFVCKCY [Mutation G24T] | 2 |
| GFGCNGPWDEDDMQCHNHCKSIKGYKGGYCAKGWFVCKCY [Mutation G34W] | 2 |
| GFGCNGPWDEADMQCHNHCKSIKGYKGGYCAKGGFVCKCY [Mutation D11A] | 2 |
| GFGCNGPWDEDDMQCHNACKSIKGYKGGYCAKGGFVCKCY [Mutation H18A] | 2 |
| GFGCNGPWDEDDMQCHNHCKSIKGYKGGYCAKGGAVCKCY [Mutation F35A] | 2 |
| GFGCNGPWDEDDMQCHNHCKSIKGYKGGYCAKSGFVCKCY [Mutation G33S] | 2 |
| GFGCNGPWFEDDMQCHNHCKSIKGYKGGYCAKGGFVCKCY [Mutation D9F] | 3 |

| Sequence | Activity (antimicrobial activity relative to the activity of plectasin) |
| --- | --- |
| GFGCNGPWDEDDMQCHNHCKSIKGYKGGYCAKTGFVCKCY [Mutation G33T] | 2 |
| GFGCNGPWDEPDMQCHNHCKSIKGYKGGYCAKGGFVCKCY [Mutation D11P] | 3 |
| GFGCVGPWDEDDMQCHNHCKSIKGYKGGYCAKGGFVCKCY [Mutation N5V] | 3 |
| GFGCNGPWDEDDMQCHNHCKSIKGYKGGYCAKGGWVCKCY [Mutation F35W] | 2 |
| GFGCNGPWNEDDMQCHNHCKSIKGYKGGYCAKGGFVCKCY [Mutation D9N] | 3 |
| GFGCNGPWDEDDMQCHNHCKSIKGVKGGYCAKGGFVCKCY [Mutation Y25V] | 2 |
| GFGCNGPWDEDDMQCHNHCKSTKGYKGGYCAKGGFVCKCY [Mutation I22T] | 2 |
| GFGCNGPWDEDDMQCHNHCKSIKQYKGGYCAKGGFVCKCY [Mutation G24Q] | 2 |
| GFGCNGPRDEDDRQCHNHCKSIKGYKGGYCAKGGFVCKCY [W8R + M13R] | 3 |
| GFGCNGPWDEDDMQCHNHCKSLKGYKGGYCAKGGFVCKCY [Mutation I22L] | 3 |
| GFGCNGPWDEDDMQCHNHCKSIKAYKGGYCAKGGFVCKCY [Mutation G24A] | 2 |
| GFGCNGKWDEDDMQCHNHCKSIKGYKGGYCAKGGFVCKCY [Mutation P7K] | 3 |
| GFGCNGPWDEDDMQCHNHCKSIKGYKGGYCQKGGFVCKCY [Mutation A31Q] | 3 |
| GFGCNGPWDEDDMQCHNHCKSIKGYKGGMCAKGGFVCKCY [Mutation Y29M] | 2 |
| GFGCNGPWDEDDMQCHNHCKSIKGYKGGYCARGGFVCKCY [Mutation K32R] | 2 |
| GFGCNGPWDEDDVQCHNHCKSIKGYKGGYCAKGGFVCKCY [Mutation M13V] | 3 |
| GFGCNGPWDEDDMQCHNHCKSIKGYKGGYCAKGGFVCKCI [Mutation Y40I] | 2 |
| GFGCNGPWDEDDMQCHNHCKSIKGYKGGYCAKKGFVCKCY [Mutation G33K] | 3 |
| GFGCNRPWDEDDMQCHNHCKSIKGYKGGYCAKGGFVCKCY [Mutation G6R] | 2 |
| GFGCNGPWDEWDMQCHNHCKSIKGYKGGYCAKGGFVCKCY [Mutation D11W] | 3 |

| Sequence | Activity (antimicrobial activity relative to the activity of plectasin) |
| --- | --- |
| GFGCNGPWPEDDMQCHNHCKSIKGYKGGYCAKGGFVCKCY [Mutation D9P] | 3 |
| GFGCNGPWDEDDMQCHNHCKSIKGSKGGYCAKGGFVCKCY [Mutation Y25S] | 2 |
| GFGCNGPWREDDMQCHNHCKSIKGYKGGYCAKGGFVCKCY [Mutation D9R] | 2 |
| GFGCNGPWDEDDMWCHNHCKSIKGYKGGYCAKGGFVCKCY [Mutation Q14W] | 2 |
| GFGCNGLWDEDDMQCHNHCKSIKGYKGGYCAKGGFVCKCY [Mutation P7L] | 2 |
| GFGCNGPWDEDDMQCHNHCKSIKGYKGGYCAKGGFQCKCY [Mutation V36Q] | 2 |
| GFGCNGPWDEYDMQCHNHCKSIKGYKGGYCAKGGFVCKCY [Mutation D11Y] | 3 |
| GFGCNGPWDQDDMQCHNHCKSIKGYKGGYCAKGGFVCKCY [Mutation E10Q] | 2 |
| GFGCNGPWDEDDMQCHNHCKSIKGYFGGYCAKGGFVCKCY [Mutation K26F] | 2 |
| GFGCNGPWDEDDMQCHNHCKSIKGYKGGYCAKRGFVCKCY [Mutation G33R] | 3 |
| GIGCNGPWDEDDMQCHNHCKSIKGYKGGYCAKGGFVCKCY [Mutation F2I] | 2 |
| GFGCNGPWDEDDMQCHNHCKSIKGYKGGYCAKEGFVCKCY [Mutation G33E] | 2 |
| GFGCNGPWDEDDMQCHNHCKSIKGYKGGHCAKGGFVCKCY [Mutation Y29H] | 2 |
| GFGCNGPWDEDDMQCHNHCKSIKGYKGGYCAKQGFVCKCY [Mutation G33Q] | 3 |
| GFGCNGPWDEDDMYCHNHCKSIKGYKGGYCAKGGFVCKCY [Mutation Q14Y] | 3 |
| GFGCNGPWDEDDMQCHNHCKSIKGYKGGYCAKGKFVCKCY [Mutation G34K] | 3 |
| GFGCNGPWDEDDMQCHNHCKSIKGYKGGYCAKGGFRCKCY [Mutation V36R] | 2 |
| GFGCNGPWDEDDMQCHNHCKSIKGYKGGYCAKNGFVCKCY [Mutation G33N] | 2 |
| GFGCNGPWDEDDMQCHNHCKSIKGYKGGYCATGGFVCKCY [Mutation K32T] | 2 |
| GFGCNGPWDEDDMQCHNHCKSMKGYKGGYCAKGGFVCKCY [Mutation I22M] | 2 |
